Target: T1, human RXFP1 (Homo sapiens, UniProt Q9HBX9)
T1 construct: expressed in transfected cells
T1 sequence (Q9HBX9 1-757): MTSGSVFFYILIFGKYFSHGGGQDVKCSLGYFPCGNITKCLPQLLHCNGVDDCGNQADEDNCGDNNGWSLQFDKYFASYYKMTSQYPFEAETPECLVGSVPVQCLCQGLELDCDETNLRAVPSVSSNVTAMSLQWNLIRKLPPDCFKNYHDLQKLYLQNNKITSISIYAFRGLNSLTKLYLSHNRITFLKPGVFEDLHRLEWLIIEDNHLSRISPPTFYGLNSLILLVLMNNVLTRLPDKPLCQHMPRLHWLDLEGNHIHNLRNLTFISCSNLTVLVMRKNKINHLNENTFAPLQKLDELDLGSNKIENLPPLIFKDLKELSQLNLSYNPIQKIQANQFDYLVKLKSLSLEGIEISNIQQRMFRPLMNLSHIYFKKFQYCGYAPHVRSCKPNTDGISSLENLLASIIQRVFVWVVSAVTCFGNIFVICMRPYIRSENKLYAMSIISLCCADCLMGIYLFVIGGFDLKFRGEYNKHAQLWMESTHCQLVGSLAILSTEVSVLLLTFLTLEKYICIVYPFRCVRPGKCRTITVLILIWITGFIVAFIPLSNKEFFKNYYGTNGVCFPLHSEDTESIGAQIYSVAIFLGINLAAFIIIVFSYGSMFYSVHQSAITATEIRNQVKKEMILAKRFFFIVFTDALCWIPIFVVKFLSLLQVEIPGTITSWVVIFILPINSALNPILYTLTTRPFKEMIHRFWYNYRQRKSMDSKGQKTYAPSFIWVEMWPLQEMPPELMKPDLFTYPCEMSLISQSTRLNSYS
Experiment: hRXFP1 HEK293 cAMP assay (HTRF)
Type: cell-based
Settings: HEK293 cells stably expressing human RXFP1; 30 min at rt; intracellular cAMP by HTRF
Method in brief: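 HEK293 cells stably expressing human RXFP1 treated 30 min at rt with compound (0.010 nM to 50 μM, 2% DMSO) in HBSS/HEPES buffer with 0.5 mM IBMX. Intracellular cAMP measured by HTRF (665/590 nm ratio) against a cAMP standard curve; potency fitted by 4-parameter logistic.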

| Compound | EC50 [µM] |
| --- | --- |
| COC(=O)C1CN(c2ccc(OC)c(C(=O)Nc3c(C(=O)Nc4ccc(F)c(C(F)(F)F)c4)sc4cc(C(F)(F)F)ccc34)c2)C1 [Example 1, Methyl 1-(3-((2-((4-fluoro-3-(trifluoromethyl)phenyl)carbamoyl)-6-(trifluoromethyl)benzo[b]thiophen-3-yl)carbamoyl)-4-methoxyphenyl)azetidine-3-carboxylate] | 0.631 |
| COc1ccc(-c2cccc(S(=O)(=O)N(C)C)c2)cc1C(=O)Nc1c(C(=O)Nc2ccc(F)c(C(F)(F)F)c2)sc2cc(C(F)(F)F)ccc12 [Example 119, 3-(3′-(N,N-dimethyl-sulfamoyl)-4-methoxy-[1,1′-biphenyl]-3-carboxamido)-N-(4-fluoro-3-(trifluoromethyl)phenyl)-6-(trifluoromethyl) benzo[b] thiophene-2-carboxamide] | 0.282 |
| COc1ccc(C2CCCC(NC3COC3)C2)cc1C(=O)Nc1c(C(=O)Nc2ccc(F)c(C(F)(F)F)c2)sc2cc(C(F)(F)F)ccc12 (single isomer, unassigned) [Example 63, N-(4-fluoro-3-(trifluoromethyl)phenyl)-3-(2-methoxy-5-(3-(oxetan-3-ylamino)cyclohexyl)benzamido)-6-(trifluoromethyl) benzo[b] thiophene-2-carboxamide] | 2.06 |
| COc1ccc(C2CCN(C(=O)C3(C)COC3)C2)cc1C(=O)Nc1c(C(=O)Nc2ccc(F)c(C(F)(F)F)c2)sc2cc(C(F)(F)F)ccc12 (stereo not shown) [Example 135, N-(4-fluoro-3-(trifluoromethyl)phenyl)-3-(2-methoxy-5-(1-(3-methyloxetane-3-carbonyl)pyrrolidin-3-yl)benzamido)-6-(trifluoromethyl) benzo[b] thiophene-2-carboxamide] | 0.488 |
| COc1ccc(-c2cc(C(=O)O)ccc2F)cc1C(=O)Nc1c(C(=O)Nc2ccc(F)c(C(F)(F)F)c2)sc2cc(C)ccc12 [Example 215, 6-fluoro-3′-((2-((4-fluoro-3-(trifluoromethyl)phenyl)carbamoyl)-6-methylbenzo[b]thiophen-3-yl)carbamoyl)-4′-methoxy-[1,1′-biphenyl]-3-carboxylic acid] | 1.43 |
| COc1ccc(N2CCCC(C(=O)NS(C)(=O)=O)C2)cc1C(=O)Nc1c(C(=O)Nc2ccc(F)c(C(F)(F)F)c2)sc2cc(C(F)(F)F)ccc12 (single isomer, unassigned) [Example 6, 1-(3-((2-((4-fluoro-3-(trifluoromethyl)phenyl)carbamoyl)-6-(trifluoromethyl)benzo[b]thiophen-3-yl)carbamoyl)-4-methoxyphenyl)-N-(methylsulfonyl) piperidine-3-carboxamide] | 0.349 |
| COc1ccc(C2=NOC3CC(NC(=O)CO)CC23)cc1C(=O)Nc1c(C(=O)Nc2ccc(F)c(C(F)(F)F)c2)sc2cc(C(F)(F)F)ccc12 (stereo not shown) [Example 261, N-[4-fluoro-3-(trifluoromethyl)phenyl]-3-{5-[5-(2-hydroxy-acetamido)-3aH,4H,5H,6H, 6aH-cyclopenta[d] [1,2]oxazol-3-yl]-2-methoxy-benzamido}-6-(trifluoromethyl)-1-benzothiophene-2-carboxamide] | 0.0907 |
| COc1cc(C)c(C(=O)N2CC3(C2)CS(=O)(=O)C3)cc1C(=O)Nc1c(C(=O)Nc2ccc(F)c(C(F)(F)F)c2)sc2cc(C(F)(F)F)ccc12 [Example 226, 3-(5-(2,2-dioxido-2-thia-6-azaspiro[3.3]heptane-6-carbonyl)-2-methoxy-4-methylbenzamido)-N-(4-fluoro-3-(trifluoromethyl)phenyl)-6-(trifluoromethyl) benzo[b] thiophene-2-carboxamide] | 1.76 |
| COc1ccc(C2CCCN(C(=O)CO)C2)cc1C(=O)Nc1c(C(=O)Nc2ccc(F)c(C(F)(F)F)c2)sc2cc(C(F)(F)F)ccc12 (single isomer, unassigned) [Example 91, N-[4-fluoro-3-(trifluoromethyl)phenyl]-3-{5-[1-(2-hydroxyacetyl)piperidin-3-yl]-2-methoxy-benzamido}-6-(trifluoromethyl)-1-benzothiophene-2-carboxamide] | 0.0958 |

Continued by falling EC50, values first:

| EC50 [µM] | Compound |
| --- | --- |
| 3.33 | COc1ccc(-c2cnn(C)c2C(=O)O)cc1C(=O)Nc1c(C(=O)Nc2ccc(F)c(C(F)(F)F)c2)sc2cc(C(F)(F)F)ccc12 [Example 212, 4-(3-((2-((4-fluoro-3-(trifluoromethyl)phenyl)carbamoyl)-6-(trifluoromethyl)benzo[b]thiophen-3-yl)carbamoyl)-4-methoxyphenyl)-1-methyl-1H-pyrazole-5-carboxylic acid] |
| 2.38 | COc1ccc(N2CCC(NCCO)C2)cc1C(=O)Nc1c(C(=O)Nc2ccc(F)c(C(F)(F)F)c2)sc2cc(C(F)(F)F)ccc12 (single isomer, unassigned) [Example 9, N-(4-fluoro-3-(trifluoromethyl)phenyl)-3-(5-(3-((2-hydroxyethyl)amino)pyrrolidin-1-yl)-2-methoxybenzamido)-6-(trifluoromethyl) benzo[b]thiophene-2-carboxamide] |
| 2.01 | COc1ccc(C2CCCN(CCS(C)(=O)=O)C2)cc1C(=O)Nc1c(C(=O)Nc2ccc(F)c(C(F)(F)F)c2)sc2cc(C(F)(F)F)ccc12 (stereo not shown) [Example 100, N-(4-fluoro-3-(trifluoromethyl)phenyl)-3-(2-methoxy-5-(1-(2-(methylsulfonyl)ethyl)piperidin-3-yl)benzamido)-6-(trifluoromethyl) benzo[b] thiophene-2-carboxamide] |
| 1.46 | COc1ccc(C2CC3(CNC3)C2)cc1C(=O)Nc1c(C(=O)Nc2ccc(F)c(C(F)(F)F)c2)sc2cc(C(F)(F)F)ccc12 [Example 207, N-(4-fluoro-3-(trifluoromethyl)phenyl)-3-(2-methoxy-5-(2-azaspiro[3.3]heptan-6-yl)benzamido)-6-(trifluoromethyl) benzo[b] thiophene-2-carboxamide] |
| 1.31 | COc1ccc(C2=NOC3CC(NC(=O)C(C)(C)O)CC23)cc1C(=O)Nc1c(C(=O)Nc2ccc(F)c(C(F)(F)F)c2)sc2cc(C(F)(F)F)ccc12 (stereo not shown) [Example 260, N-[4-fluoro-3-(trifluoromethyl)phenyl]-3-{5-[5-(2-hydroxy-2-methyl-propanamido)-3aH,4H,5H,6H, 6aH-cyclopenta[d] [1,2]oxazol-3-yl]-2-methoxy-benzamido}-6-(trifluoromethyl)-1-benzothiophene-2-carboxamide] |
| 1.17 | COc1ccc(C2CC3(C2)CN(S(C)(=O)=O)C3)cc1C(=O)Nc1c(C(=O)Nc2ccc(F)c(C(F)(F)F)c2)sc2cc(C(F)(F)F)ccc12 [Example 204, N-(4-fluoro-3-(trifluoromethyl)phenyl)-3-(2-methoxy-5-(2-(methylsulfonyl)-2-azaspiro[3.3]heptan-6-yl)benzamido)-6-(trifluoromethyl) benzo[b] thiophene-2-carboxamide] |
| 0.662 | COc1ccc(C2CC2C(=O)N2CC(OC)C2)cc1C(=O)Nc1c(C(=O)Nc2ccc(F)c(C(F)(F)F)c2)sc2cc(C(F)(F)F)ccc12 (stereo not shown) [Example 163, N-[4-fluoro-3-(trifluoromethyl)phenyl]-3-{2-methoxy-5-[2-(3-methoxyazetidine-1-carbonyl)cyclopropyl]benzamido}-6-(trifluoromethyl)-1-benzothiophene-2-carboxamide] |
| 0.228 | COc1ccc(C2CCN(C(=O)C(C)(C)CO)C2)cc1C(=O)Nc1c(C(=O)Nc2ccc(F)c(C(F)(F)F)c2)sc2cc(C(F)(F)F)ccc12 (single isomer, unassigned) [Example 150, N-(4-fluoro-3-(trifluoromethyl)phenyl)-3-(5-(1-(3-hydroxy-2,2-dimethyl-propanoyl)pyrrolidin-3-yl)-2-methoxy-benzamido)-6-(trifluoromethyl) benzo[b] thiophene-2-carboxamide] |
| 0.166 | COc1ccc(C2=NOC3CS(=O)(=O)CC23)cc1C(=O)Nc1c(C(=O)Nc2ccc(F)c(C(F)(F)F)c2)sc2cc(C(F)(F)F)ccc12 (stereo not shown) [Example 52, 3-(5-(5,5-dioxido-3a, 4,6,6a-tetrahydrothieno[3,4-d]isoxazol-3-yl)-2-methoxybenzamido)-N-(4-fluoro-3-(trifluoromethyl)phenyl)-6-(trifluoromethyl)benzo[b]thiophene-2-carboxamide] |
| 0.0283 | COc1ccc(-c2cc(S(=O)(=O)NC(C)(C)C)ccc2F)cc1C(=O)Nc1c(C(=O)Nc2ccc(F)c(C(F)(F)F)c2)sc2cc(C(F)(F)F)ccc12 [Example 111, 3-(5′-(N-(tert-butyl)sulfamoyl)-2′-fluoro-4-methoxy-[1,1′-biphenyl]-3-carboxamido)-N-(4-fluoro-3-(trifluoromethyl)phenyl)-6-(trifluoromethyl) benzo[b] thiophene-2-carboxamide] |
